Experimental data as given in paper PMC8228075, “In Vitro and In Silico Characterization of G-Protein Coupled Receptor (GPCR) Targets of Phlorofucofuroeckol-A and Dieckol” (Marine Drugs, 2021).

Columns and labels:
Format in all cases: cell-based
[1] = molecular target: T1, Free fatty acid receptor 1 (FFA1R) (GPR40) (Homo sapiens, UniProt O14842); assay: FFA1R/GPR40 functional agonist assay (Ca2+ mobilization, HEK-293 cells); conditions: reference agonist; read-out: Reference Drugs, EC50
T1 construct: host or cells: HEK-293 cells
Method: The in-house assay protocol and experimental conditions are reported in our previous reports. […] Then, the mixture of fluorescent probe (Fluo4 Direct, Invitrogen) and probenecid in HBSS buffer (Invitrogen) complemented with 20 mM Hepes (Invitrogen) (pH 7.4) was added into each well and incubated for 60 min at 37 °C, followed by 15 min incubation at 22 °C. Thereafter, the assay plates were positioned in a CellLux microplate reader (PerkinElmer, Waltham, MA, USA) which was used for the addition of the following: For agonist assay-test compound, reference agonist, or HBSS buffer (basal control). Linoleic acid at 100 μM was added in separate assay wells for stimulated control measurement.

h5-HT1BR = h5-HT1BR (Homo sapiens, UniProt P28222); assay: h5-HT1BR functional antagonist assay (cAMP, HTRF, Hela cells)
Method: (§1) The in-house assay protocol and experimental conditions are reported in our previous reports. The functional effect of dieckol and PFF-A was characterized based on their modulation effect on cytosolic Ca^2+ ion mobilization using a fluorimetric detection method or by measuring their effect on cAMP modulation using homogeneous time-resolved fluorescence (HTRF) detection.
(§2) Functional activity of phlorotannins over hA2AR, hα2CAR, hCB1R, GLP-1R, and h5-HT1BR was determined by measuring their effects on cAMP production by the HTRF detection method using transected cells expressing human cloned receptors.
Concisely, a plasmid containing the GPCR gene of interest (5-HT1B) was transfected into Hela cells. The resulting stable transfectants were suspended in HBSS buffer (Invitrogen, Carlsbad, CA, USA) containing 20 mM HEPES (pH 7.4), […], 1 mg/mL glucose, and 500 μM IBMX and distributed in microplates at a density of 2 × 10^4 cells/well. […] Then, the cells were lysed and a fluorescence acceptor (D2-labeled cAMP) and fluorescence donor (anti-cAMP antibody with europium cryptate) were added following 60 min incubation at RT.

[2] = molecular target: T2, Cannabinoid receptor 1 (CB1R) (Homo sapiens, UniProt P21554); assay: hCB1R functional antagonist assay (cAMP, HTRF, CHO cells); conditions: reference antagonist; read-out: Reference Drugs, IC50
T2 construct: host or cells: CHO cells
Method: as §1, §2
The transfected CHO cells were suspended in HBSS buffer (Invitrogen) complemented with 20 mM HEPES (pH 7.4). […] After 30 min of incubation at 37 °C, the cells were lysed and the fluorescence acceptor (D2-labeled cAMP) and fluorescence donor (anti-cAMP antibody labeled with europium cryptate) were added.

[3] = molecular target: T3, Alpha-2A adrenergic receptor (hα2AAR) (Homo sapiens, UniProt P08913); assay: hα2AAR functional antagonist assay (Ca2+ mobilization, rat basophil leukemia cells); conditions: reference antagonist; read-out: Reference Drugs, IC50
T3 construct: host or cells: rat basophil leukemia cells
T3 sequence (P08913 1-465): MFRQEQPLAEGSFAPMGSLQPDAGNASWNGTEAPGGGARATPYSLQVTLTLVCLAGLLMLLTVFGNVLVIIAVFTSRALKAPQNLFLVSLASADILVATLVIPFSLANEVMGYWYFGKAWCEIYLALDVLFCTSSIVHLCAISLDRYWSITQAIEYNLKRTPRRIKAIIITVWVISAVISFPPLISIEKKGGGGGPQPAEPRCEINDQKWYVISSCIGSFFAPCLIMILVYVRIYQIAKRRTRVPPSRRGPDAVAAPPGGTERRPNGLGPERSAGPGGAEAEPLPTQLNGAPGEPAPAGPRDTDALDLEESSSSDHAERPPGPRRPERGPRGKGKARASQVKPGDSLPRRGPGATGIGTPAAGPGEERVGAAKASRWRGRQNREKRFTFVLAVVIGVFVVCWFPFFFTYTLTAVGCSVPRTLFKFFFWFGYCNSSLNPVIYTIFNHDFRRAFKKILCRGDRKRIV
Text: as §1
The rat basophil leukemia cells were distributed in microplates at a density of 1.1 × 10^4 cells/well after suspending in a HBSS buffer (Invitrogen) containing 20 mM HEPES. Then, the fluorescent probe (Fluo8, AAT Bioquest) mixed with probenecid in HBSS buffer (Invitrogen) complemented with 20 mM Hepes (Millipore) (pH 7.4) was added into each well incubated for 60 min at 30 °C. Thereafter, the assay plates were positioned in a microplate reader (FlipR Tetra, Molecular Device) and we added test compounds, reference agonist/antagonist or HBSS buffer (basal control). Change in fluorescence intensity which varies proportionally to the free cytosolic Ca^2+ ion concentration was measured.

Sequence of h5-HT1BR (P28222 whole entry): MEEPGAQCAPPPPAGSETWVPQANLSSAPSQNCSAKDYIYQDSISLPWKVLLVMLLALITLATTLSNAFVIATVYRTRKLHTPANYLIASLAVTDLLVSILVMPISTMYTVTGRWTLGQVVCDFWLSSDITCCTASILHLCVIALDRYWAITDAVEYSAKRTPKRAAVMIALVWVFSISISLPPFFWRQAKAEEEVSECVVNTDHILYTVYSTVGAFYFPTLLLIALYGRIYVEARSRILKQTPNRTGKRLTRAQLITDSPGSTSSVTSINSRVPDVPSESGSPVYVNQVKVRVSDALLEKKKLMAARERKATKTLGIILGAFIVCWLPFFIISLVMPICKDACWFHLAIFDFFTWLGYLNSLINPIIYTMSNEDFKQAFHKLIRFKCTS
T2 sequence (P21554 whole entry): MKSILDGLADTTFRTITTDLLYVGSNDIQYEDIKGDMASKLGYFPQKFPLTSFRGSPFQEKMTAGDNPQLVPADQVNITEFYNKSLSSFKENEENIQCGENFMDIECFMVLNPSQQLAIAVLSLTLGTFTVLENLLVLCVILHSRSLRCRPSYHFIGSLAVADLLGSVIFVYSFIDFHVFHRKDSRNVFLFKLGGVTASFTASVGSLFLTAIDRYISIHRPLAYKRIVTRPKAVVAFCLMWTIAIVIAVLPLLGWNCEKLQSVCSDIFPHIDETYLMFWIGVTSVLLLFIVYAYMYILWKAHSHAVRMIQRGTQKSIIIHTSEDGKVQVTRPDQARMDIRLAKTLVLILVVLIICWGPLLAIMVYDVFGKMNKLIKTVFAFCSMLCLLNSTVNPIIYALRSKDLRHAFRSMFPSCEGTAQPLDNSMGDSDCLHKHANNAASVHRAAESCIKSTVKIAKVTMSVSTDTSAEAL
T1 sequence (O14842 whole entry): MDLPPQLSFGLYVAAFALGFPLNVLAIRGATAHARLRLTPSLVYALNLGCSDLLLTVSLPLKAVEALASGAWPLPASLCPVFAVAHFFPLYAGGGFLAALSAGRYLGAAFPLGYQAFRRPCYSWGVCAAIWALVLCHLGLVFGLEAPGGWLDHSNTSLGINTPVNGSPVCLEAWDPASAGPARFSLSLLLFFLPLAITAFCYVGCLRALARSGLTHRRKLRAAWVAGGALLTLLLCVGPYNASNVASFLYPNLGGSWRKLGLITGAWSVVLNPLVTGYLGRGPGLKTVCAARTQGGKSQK

## CCCCC/C=C\C/C=C\CCCCCCCC(=O)O [linoleic acid, reference compound]
[1]
  EC50: 10 µM

## CN(C)CCCc1cc(C(=O)Nc2ccc(-c3ccncc3)cc2)ccc1O [GR55562, reference compound]
h5-HT1BR
  IC50: 0.023 µM

## Cc1c(C(=O)NN2CCOCC2)nn(-c2ccc(Cl)cc2Cl)c1-c1ccc(I)cc1 [AM 281, reference compound]
[2]
  IC50: 0.077 µM

## COC1(C2=NCCN2)COc2ccccc2O1 (stereo not shown) [RX-821002, reference compound]
[3]
  IC50: 0.017 µM
